{"source": "patent US11260042B2", "about": "“Pharmaceutical combination for the treatment of cancer” (ABILITY PHARMACEUTICALS S.L., priority 2017, dated 2022)", "key": {"[1]": {"system": "A549 (human lung carcinoma) cell line with mutated KRAS", "assay": "Cell viability (MTT) of ABTL0812 in combination with paclitaxel, A549", "assay_type": "cell-based", "settings": "A549, 72 hours, 0.1% FBS, single agent", "protocol": "(§1) Methods: A549 cells were incubated with increasing concentrations of ABTL0812 (3-300 μM), paclitaxel (0.003-1 μM), or a combination of both using subIC50 fixed concentration of ABTL0812 and 0.003-1 μM paclitaxel for 72 hours in DMEM with 0.1% FBS. H157, H1957 and HTB-812 cells were incubated with increasing concentrations of paclitaxel (0.001-10 μM) alone and in combination with subIC50 fixed concentration of ABTL0812 for 48 hours in DMEM with 0.1% FBS. Cell viability was evaluated in all cases by MTT assay and IC50's were calculated for paclitaxel and the combination. The concentrations of the combinations for the different cell lines were:\n(§2) Finally, the Combination Index (CI), as described in the previous section, was calculated for the values of paclitaxel IC50."}, "H157 cells": {"system": "H157 cells", "assay": "Cell viability (MTT) of ABTL0812 in combination with paclitaxel, H157", "assay_type": "cell-based, human", "settings": "H157, 48 hours, 0.1% FBS, single agent", "protocol": "as §1, §2"}, "[2]": {"system": "MiaPaca2 (human pancreatic carcinoma)", "assay": "Cell viability (MTT) of ABTL0812 alone or with gemcitabine in pancreatic cancer", "assay_type": "cell-based", "protocol": "Methods: MiaPaca2 cells were seeded in 24-well plates together with gemcitabine (0.01-100 μM), ABTL812 (3-300 μM), or a combination of both (subIC50, i.e., 25 μM fixed concentration of ABTL0812 with 0.01-100 μM gemcitabine) and left in the incubator for 72h (0.5% FBS). Cell viability was studied by the MTT assay and several parameters were determined to evaluate a possible synergism. First the IC50 for each drug alone or the combination was calculated. Then, synergism (CI) was calculated as described above."}, "[3]": {"system": "SH-SY5Y human neuroblastoma xenograft", "assay_type": "in vivo, Nu/nu female mice", "protocol": "Methods: Immunodeficient athymic NMRI-Foxn1^nu/Foxn1^nu nude mice were subcutaneously injected with SH-SY5Y cells. This cell line was genetically modified to express luciferase, which would allow the in vivo study not only of tumor size, but also of metastasis formation. When tumors reached an average volume of 80 mm^3, mice were randomly distributed into different treatment groups. ABTL0812 was administered orally at 120 mg/kg daily. In parallel we used cisplatin, a drug included in the chemotherapy induction phase for the treatment of neuroblastoma. Cisplatin was administered at 2 mg/kg i.p. twice a week (Wang et al. 2010). Additionally, we studied the effect of combining ABTL0812 with cisplatin at the indicated doses.\nC. Metastasis formation. In order to investigate the effect of ABTL0812 in metastasis formation we used a SH-SY5Y cell line transduced with a luciferase reporter vector. As described above, mice bearing xenograft tumors derived from this cell line were treated with ABTL0812, cisplatin or the combination of both drugs. After ten days of treatment animals were sacrificed and metastasis were assessed ex vivo by monitoring luciferase-expressing cells in lung and liver."}, "[4]": {"system": "H157 human squamous lung cancer xenograft", "assay_type": "in vivo", "settings": "day 20 after beginning of treatments; ABTL0812 120 mg/kg oral; end-point tumor volume >1000 mm^3 or welfare", "protocol": "Objective: Investigate survival rate for ABTL0812 alone and in combination with paclitaxel and carboplatin (P/C) with a Kaplan-Meier analysis in a human squamous NSCLC xenograft model Methods: Mice were injected with 5×10^6 H157 cells in one flank to induce tumor formation. […] The different conditions studied were vehicle, 120 mg/kg oral ABTL0812 daily, 15 mg/kg carboplatin+50 mg/kg paclitaxel by i.p. route and an additional group receiving the combination of these two regimens. […] Tumor volume was monitored 3 times a week."}, "[5]": {"system": "MiaPaca2 human pancreatic cancer xenograft", "assay": "Human pancreatic xenograft (MiaPaca-2), gemcitabine and Nab-paclitaxel/gemcitabine", "assay_type": "in vivo, Athymic Nude-Foxn1nu female mice", "settings": "ABTL0812 120 mg/kg oral 5 times a week; gemcitabine 60 mg/kg, Nab-Paclitaxel 5 mg/kg i.p. 2 times a week (suboptimal chemotherapy dose)", "protocol": "It is important to change the site of injection to avoid intestinal necrosis and keep Nab-Paclitaxel and gemcitabine injections as far as possible one from the other in mice abdomen. • Gemcitabine+ABTL0812 (n=10): treated orally with 120 mg/kg of ABTL0812 in 200 μl of distilled water+5% glycerol, 5 times a week and with 60 mg/kg of gemcitabine administered i.p in 100 μl of sterile water, 2 times a week. ABTL0812 was always administered before chemotherapy with the aim of reducing the stress derived from the i.p. injection, that is normally applied as the last administration. • Gemcitabine+Nab-Paclitaxel+ABTL0812 (n=8): treated orally with 120 mg/kg of ABTL0812 in 200 μl of distilled water+5% glycerol, 5 times a week, with 60 mg/kg of gemcitabine administered i.p. in 100 μl of sterile water, 2 times a week and with 5 mg/kg of Nab-Paclitaxel administered i.p. in 230 μl of 0.9% NaCl solution 2 times a week. As in the gemcitabine+Nab-Paclitaxel group, injections where administered in separated areas of the abdomen. […]\nTreatment efficacy was assessed by measuring tumor volume three days a week. Additionally, total body weight was monitored three days a week to test the toxicity associated with the treatments in addition to visual examination of signs indicative of clinicopathological symptoms. […]"}, "HTB-812 cells": {"system": "HTB-812 cells", "assay": "Cell viability (MTT) of ABTL0812 in combination with paclitaxel, HTB-812", "assay_type": "cell-based, human", "settings": "HTB-812, 48 hours, 0.1% FBS, single agent", "protocol": "as §1, §2"}, "H1957 cells": {"system": "H1957 cells", "assay": "Cell viability (MTT) of ABTL0812 in combination with paclitaxel, H1957", "assay_type": "cell-based, human", "settings": "H1957, 48 hours, 0.1% FBS, single agent", "protocol": "as §1, §2"}}, "note": "“Also recorded” adds a separate entry of the source."}
{"compound": "CCCCC/C=C\\C/C=C\\CCCCCCC(O)C(=O)O", "note": "(stereo not drawn) [ABTL0812, COOH—CHOH—(CH2)6—(CH═CH—CH2)2—(CH2)3—CH3]", "values": [{"measurement": "IC50", "setting": "[1]", "result": 49, "unit": "µM"}, {"measurement": "IC50", "setting": "H157 cells", "result": 23, "unit": "µM"}, {"measurement": "cytotoxicity alone at the concentration chosen for the combination", "setting": "[2]; MiaPaca2, 25 μM ABTL0812", "result": "< 10", "unit": "%"}, {"measurement": "IC50", "setting": "[2]; MiaPaca2, 72h, 0.5% FBS, MTT, single agent", "result": 49, "unit": "µM"}, {"measurement": "tumor progression (size, weight)", "setting": "[3]; ABTL0812 120 mg/kg oral daily, cisplatin 2 mg/kg i.p. twice a week", "result": "inhibits tumor progression with an efficacy that is similar to cisplatin"}, {"measurement": "Hematocrit", "setting": "[3]; mouse, in vivo", "result": "40.2 ± 1.4", "unit": "%"}, {"measurement": "RBC", "setting": "[3]; mouse, in vivo", "result": "7.9 ± 0.4 ×10^6/μL"}, {"measurement": "WBC", "setting": "[3]; mouse, in vivo", "result": "3.9 ± 1.3 ×10^3/μL"}, {"measurement": "hematological safety", "setting": "[3]; mouse, in vivo", "result": "no impact on blood hematocrit"}, {"measurement": "loss of body weight (transient)", "setting": "[3]; mouse, in vivo", "result": "< 10", "unit": "%"}, {"measurement": "metastasis formation in lung and liver", "setting": "[3]; ten days of treatment, luciferase-expressing cells ex vivo", "result": "inhibited metastasis formation"}, {"measurement": "survival (Kaplan-Meier)", "setting": "[4]", "result": 0, "unit": "%"}, {"measurement": "tumor volume", "setting": "[5]", "result": "better response in tumor volume evolution than Gem+Nab-Pac group during the first 20 days of treatment; also recorded: better response in tumor volume evolution than Gem group during the whole study"}, {"measurement": "IC50", "setting": "HTB-812 cells", "result": 29, "unit": "µM"}, {"measurement": "IC50", "setting": "H1957 cells", "result": 43, "unit": "µM"}]}
